Experimental data from ChEMBL document CHEMBL3639260, “5-membered nitrogen containing heterocyclic derivatives and pharmaceutical compositions comprising the same” (2015).

Biological target: Xanthine dehydrogenase/oxidase (Bos taurus, UniProt P80457)
Experiment: Inhibition Assay: Xanthine oxidase (from bovine milk, Sigma) was prepared with phosphate-buffered saline (PBS) at 0.02 units/mL, and then the solution was added to 96 well plates at 50 μL/well. In addition, test compounds diluted with PBS were added at 50 μL/well. Xanthine (Wako) at 200 μM prepared with PBS was added at 100 μL/well, and the reaction was conducted for 10 minutes at room temperature. Absorbance at 290 nm was measured using a microplate reader SpectraMax Plus 384 (Molecular device). The absorbance under a condition without xanthine is 0%, and control without test compounds is 100%.

Sequence of Xanthine dehydrogenase/oxidase (P80457 whole entry): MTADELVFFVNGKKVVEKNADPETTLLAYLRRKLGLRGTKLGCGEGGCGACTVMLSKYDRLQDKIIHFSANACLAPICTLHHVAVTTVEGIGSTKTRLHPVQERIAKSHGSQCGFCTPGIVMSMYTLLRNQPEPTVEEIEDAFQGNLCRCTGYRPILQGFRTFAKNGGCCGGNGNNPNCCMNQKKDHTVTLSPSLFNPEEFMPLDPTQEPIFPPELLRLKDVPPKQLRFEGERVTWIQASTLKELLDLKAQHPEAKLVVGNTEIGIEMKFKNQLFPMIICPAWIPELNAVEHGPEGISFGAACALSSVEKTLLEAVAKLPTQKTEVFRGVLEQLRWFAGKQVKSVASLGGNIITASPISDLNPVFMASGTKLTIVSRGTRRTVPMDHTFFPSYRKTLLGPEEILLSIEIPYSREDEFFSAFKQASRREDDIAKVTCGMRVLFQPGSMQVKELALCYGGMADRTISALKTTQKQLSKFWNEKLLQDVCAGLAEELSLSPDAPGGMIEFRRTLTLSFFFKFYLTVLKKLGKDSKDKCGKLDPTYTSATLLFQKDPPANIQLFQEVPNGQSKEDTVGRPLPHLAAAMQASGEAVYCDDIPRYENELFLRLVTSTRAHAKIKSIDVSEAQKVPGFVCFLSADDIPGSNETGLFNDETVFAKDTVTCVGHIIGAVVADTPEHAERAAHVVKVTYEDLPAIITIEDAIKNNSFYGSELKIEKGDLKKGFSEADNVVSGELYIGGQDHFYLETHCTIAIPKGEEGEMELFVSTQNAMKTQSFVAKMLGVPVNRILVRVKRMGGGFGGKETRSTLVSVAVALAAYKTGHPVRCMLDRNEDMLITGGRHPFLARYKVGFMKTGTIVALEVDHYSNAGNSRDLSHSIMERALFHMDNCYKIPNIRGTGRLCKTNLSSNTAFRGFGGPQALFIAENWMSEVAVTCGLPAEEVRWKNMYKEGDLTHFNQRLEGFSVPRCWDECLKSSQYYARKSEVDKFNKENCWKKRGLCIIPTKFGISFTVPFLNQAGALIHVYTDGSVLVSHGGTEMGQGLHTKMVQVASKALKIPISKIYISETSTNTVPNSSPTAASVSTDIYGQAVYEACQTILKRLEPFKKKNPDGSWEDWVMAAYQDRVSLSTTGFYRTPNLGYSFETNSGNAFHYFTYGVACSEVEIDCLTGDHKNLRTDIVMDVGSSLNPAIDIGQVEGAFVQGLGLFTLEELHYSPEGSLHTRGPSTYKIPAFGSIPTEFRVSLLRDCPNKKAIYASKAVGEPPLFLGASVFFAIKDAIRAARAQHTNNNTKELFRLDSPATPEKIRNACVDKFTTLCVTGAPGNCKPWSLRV

SMILES | IC50
N#Cc1cn(-c2ccc(C(=O)O)cc2)cc1-c1ccc(OCCCO)cc1 | 63.2 nM
N#Cc1cn(-c2ccc(C(=O)O)cc2)cc1-c1ccccc1OCCOc1ccccc1 | 47 nM
